Measurements from PMC12697865, “ZFPL1 Promotes Colorectal Cancer Progression by Stabilizing ASS1 to Drive the Urea Cycle and M2 Macrophage‐Mediated Metastatic Colonization” (Advanced Science, 2025).

Biological target: T1, zinc finger protein-like 1 (ZFPL1) (Homo sapiens, UniProt O95159)
T1 sequence (O95159 1-310): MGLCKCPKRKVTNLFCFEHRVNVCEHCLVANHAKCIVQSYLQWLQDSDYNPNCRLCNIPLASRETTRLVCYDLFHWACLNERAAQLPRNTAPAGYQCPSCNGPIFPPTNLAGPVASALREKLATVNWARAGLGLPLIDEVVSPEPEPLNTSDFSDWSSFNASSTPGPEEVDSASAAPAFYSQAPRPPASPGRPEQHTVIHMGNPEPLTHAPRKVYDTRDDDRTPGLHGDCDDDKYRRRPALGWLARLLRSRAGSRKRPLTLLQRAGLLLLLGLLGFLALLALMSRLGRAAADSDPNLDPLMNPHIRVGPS
Test: microscale thermophoresis (MST) with fluorescently labelled ZFPL1
Assay type: binding

Kd: 8.52 µM
SMILES: O=C(/C=C/c1ccc(O)c2c1[C@H](C(=O)O[C@H](Cc1ccc(O)c(O)c1)C(=O)O)[C@@H](c1ccc(O)c(O)c1)O2)O[C@H](Cc1ccc(O)c(O)c1)C(=O)O [Salvianolic acid B]
